Measurements reported in patent US20060257463A1, “Transmucosal delivery of cannabinoids” (UNIVERSITY OF MISSISSIPPI, priority 2002, published 2006).
Read-outs that look alike come from different tables or passages of the source.

Experiments:
[1] = Diffusion study of transmucosal films in modified Franz cells; details: rabbit mucosa; Brij 3.0% buffer pH 7.2; FIG. 1
Procedure: Diffusion studies of the transmucosal preparation films in Examples #5 and #6 were performed using a PermeGear, Model V9, 9 Cell System. Modified Franz cells were employed using thinly-excised rabbit mucosa as the diffusion membrane. Diffusion media was a diffusion buffer system of Brij® 3.0% (pH=7.2) which was determined by previous testing.

[2] = Drug recovery after hot-melt processing into transmucosal preparations; type: physicochemical; details: after processing the drug into TMP systems
Procedure: The formulas are listed below. The PEO, PVP and Vitamin E TPGS were dry blended in a V-blender. The THC and the THC-HS were solubilized in the PEG 400 and immediately sprayed into the dry blend with continuous mixing. The resulting blend was then hot-melt extruded into films. The highest extrusion temperature was 150° C. and residence time in the barrel was approximately 2 minutes. The resulting transmucosal preparations were approximately 1.0 mm in thickness and both contained over 98% of the original theoretical percent of drug within the formulation.
It has been reported that THC is very unstable at room temperature and its primary degradant is cannabinol (CBN). It has also been reported that THC instability is accelerated by ultraviolet light and heat.

[3] = Klucel matrix film, cited from earlier work
[4] = Solubility in polyethylene glycol 400; details: PEG 400

Row | Molecule | duration of controlled diffusion [1] | release behaviour [1] | THC recovered after processing into THC transmucosal matrix patch systems [2] | THC degradation within the hot-mold matrix ([3]; processed at 120° C. for 20 minutes) [%] | THC degradation within the hot-mold matrix ([3]; processed at 160° C. for 20 minutes) [%] | THC degradation within the hot-mold matrix ([3]; processed at 200° C. for 20 minutes) [%] | solubility in polyethylene glycol 400 [4] [%]
1 | Tetrahydrocannabinol Hemisuccinate [THC-HS] | over 22 hours | more immediate release | – | – | – | – | –
2 | CCCCCc1cc(O)c2c(c1)OC(C)(C)[C@@H]1CCC(C)=C[C@@H]21 [THC, Tetrahydrocannabinol] | – | – | over 98% | 1.8 | 2.3 | 4.3 | > 20
